Measurements: ChEMBL document CHEMBL5370660, “Design of a Supersoft Topical JAK Inhibitor, Which Is Effective in Human Skin but Rapidly Deactivated in Blood” (J Med Chem, 2023)
In brackets after ≈: the same amount, converted by molar mass. Activity calls are given as the source filed them. No cut-off for these calls is given here.

How the values were obtained:
[1] = Metabolic stability in human skin S9 fraction measured upto 120 mins by LC-MS analysis; type: ADME, subcellular
JAK2/JAK1 = JAK2/JAK1 (Homo sapiens, UniProt O60674+P23458); test: Inhibition of JAK1/2-mediated STAT1 phosphorylation in human M07E cells preincubated for 30 mins followed by IFN-alpha stimulation measured after 15 mins by flow cytometry; type: cell-based
Chain of JAK2/JAK1 (P23458 whole entry): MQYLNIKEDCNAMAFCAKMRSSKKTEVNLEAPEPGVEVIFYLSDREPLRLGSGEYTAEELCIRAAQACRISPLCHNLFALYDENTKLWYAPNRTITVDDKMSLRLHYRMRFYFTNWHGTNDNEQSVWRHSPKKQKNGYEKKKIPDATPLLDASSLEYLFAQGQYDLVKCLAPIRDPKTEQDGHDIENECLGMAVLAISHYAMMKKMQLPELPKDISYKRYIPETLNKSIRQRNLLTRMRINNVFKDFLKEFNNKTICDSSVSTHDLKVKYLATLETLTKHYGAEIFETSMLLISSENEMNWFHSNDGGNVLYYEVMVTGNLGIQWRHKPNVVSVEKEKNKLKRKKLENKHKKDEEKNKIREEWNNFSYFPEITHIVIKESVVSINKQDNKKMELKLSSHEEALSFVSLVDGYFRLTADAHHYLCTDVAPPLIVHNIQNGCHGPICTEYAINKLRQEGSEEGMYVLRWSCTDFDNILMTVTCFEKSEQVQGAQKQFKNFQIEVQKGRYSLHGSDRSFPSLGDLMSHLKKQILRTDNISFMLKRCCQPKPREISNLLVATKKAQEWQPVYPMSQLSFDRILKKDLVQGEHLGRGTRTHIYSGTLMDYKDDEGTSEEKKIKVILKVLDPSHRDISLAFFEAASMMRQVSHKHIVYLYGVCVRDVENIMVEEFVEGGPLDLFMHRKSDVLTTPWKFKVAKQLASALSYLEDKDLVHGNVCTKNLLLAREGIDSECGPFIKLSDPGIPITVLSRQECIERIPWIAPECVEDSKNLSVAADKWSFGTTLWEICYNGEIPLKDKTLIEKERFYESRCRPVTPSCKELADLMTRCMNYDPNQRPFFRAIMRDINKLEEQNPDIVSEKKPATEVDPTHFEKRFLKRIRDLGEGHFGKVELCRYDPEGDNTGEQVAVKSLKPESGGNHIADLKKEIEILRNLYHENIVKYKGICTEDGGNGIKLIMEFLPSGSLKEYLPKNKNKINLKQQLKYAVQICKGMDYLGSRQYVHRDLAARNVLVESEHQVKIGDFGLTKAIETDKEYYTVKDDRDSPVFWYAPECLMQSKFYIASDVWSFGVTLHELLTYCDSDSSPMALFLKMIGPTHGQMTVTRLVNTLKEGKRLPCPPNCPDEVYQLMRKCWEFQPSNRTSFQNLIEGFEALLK
Chain of JAK2/JAK1 (O60674 whole entry): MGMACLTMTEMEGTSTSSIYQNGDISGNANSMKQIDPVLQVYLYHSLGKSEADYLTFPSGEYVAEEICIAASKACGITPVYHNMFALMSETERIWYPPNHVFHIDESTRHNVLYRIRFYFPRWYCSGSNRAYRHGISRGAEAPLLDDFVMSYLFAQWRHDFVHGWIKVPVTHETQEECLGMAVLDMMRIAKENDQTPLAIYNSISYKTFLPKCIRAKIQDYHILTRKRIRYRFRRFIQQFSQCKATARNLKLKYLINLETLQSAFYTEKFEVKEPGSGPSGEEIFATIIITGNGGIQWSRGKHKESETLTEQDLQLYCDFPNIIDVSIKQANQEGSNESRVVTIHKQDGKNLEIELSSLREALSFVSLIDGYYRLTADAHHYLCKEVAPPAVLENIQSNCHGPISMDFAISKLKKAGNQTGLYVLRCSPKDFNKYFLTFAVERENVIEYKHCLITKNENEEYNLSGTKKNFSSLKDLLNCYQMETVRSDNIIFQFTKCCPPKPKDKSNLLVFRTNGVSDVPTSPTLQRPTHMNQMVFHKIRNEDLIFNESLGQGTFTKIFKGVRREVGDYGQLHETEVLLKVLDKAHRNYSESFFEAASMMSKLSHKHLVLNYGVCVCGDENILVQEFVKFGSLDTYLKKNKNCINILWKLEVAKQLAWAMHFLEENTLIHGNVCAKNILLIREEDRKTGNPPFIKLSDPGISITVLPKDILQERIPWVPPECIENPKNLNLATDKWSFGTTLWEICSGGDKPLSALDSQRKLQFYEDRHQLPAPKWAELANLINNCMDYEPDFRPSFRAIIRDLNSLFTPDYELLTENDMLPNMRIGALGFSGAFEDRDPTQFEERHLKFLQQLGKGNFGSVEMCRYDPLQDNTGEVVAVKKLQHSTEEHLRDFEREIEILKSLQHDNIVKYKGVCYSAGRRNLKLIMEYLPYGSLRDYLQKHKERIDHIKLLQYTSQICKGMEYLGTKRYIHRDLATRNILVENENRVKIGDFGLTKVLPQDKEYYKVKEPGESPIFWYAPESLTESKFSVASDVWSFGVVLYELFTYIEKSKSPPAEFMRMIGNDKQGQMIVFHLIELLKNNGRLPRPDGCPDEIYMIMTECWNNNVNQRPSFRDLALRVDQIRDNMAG

[2] = Half life in human blood; type: ADME, tissue-based
[3] = target: Tyrosine-protein kinase JAK2 (Homo sapiens, UniProt O60674); test: Inhibition of GST-fused JAK2 (808 to 1132 residues)(unknown origin) using Carboxyfluorescein-Ahx-GGEEEEYFELVKKKK peptide as substrate incubated for 30 mins in presence of ATP by caliper microfluidic mobility shift assay
Chain of Tyrosine-protein kinase JAK2 (O60674 whole entry, the tested form may be a part): as the sequence (O60674 whole entry) above

[4] = Stability in human whole blood assessed as half life at 1 uM incubated upto 8 hrs by LC-MS/MS analysis; type: ADME, tissue-based
Homo sapiens [5] = test: Inhibition of TARC gene expression in IL-4/IL-13-stimulated fresh human skin explant using Franz diffusion cell model at 0.5 % administered topically preincubated overnight followed by fresh media replacement in receiver fluid without compound and subsequently stimulated with IL-4/IL-13 measured after 24 hrs by RT-qPCR analysis; type: functional, tissue-based; conditions: Skin of body
C-C motif chemokine 17 = target: T1, C-C motif chemokine 17 (Homo sapiens, UniProt Q92583); test: Inhibition of TARC in human skin immersion culture at 10 uM preincubated for 3 hrs followed by IL-4/IL-13 stimulation measured after 18 hrs by MSD assay relative to control; type: tissue-based, Skin of body; conditions: time 21 hrs
T1 sequence (Q92583 whole entry): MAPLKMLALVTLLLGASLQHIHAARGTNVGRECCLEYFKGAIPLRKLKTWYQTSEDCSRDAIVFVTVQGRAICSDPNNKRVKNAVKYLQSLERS

Homo sapiens [6] = test: Downregulation of GSVA score in human abdominal skin model at 0.2 % administered topically as cream treated for 24 hrs followed by removal of cream and stratum corneum and subsequently stimulated with IL-4/IL-13 measured after 3 hrs; type: functional, tissue-based; conditions: Abdomen skin, route top, time 27.0 hrs
[7] = Permeability of compound; type: ADME; conditions: not told; read-out: permeability
[8] = Saturation solubility of compound in PEG400/transcutol/benzyl alcohol/water mixture using crystalline form of sample; type: physicochemical
[9] = Lipophilicity, LogD of compound; type: physicochemical; conditions: octanol/water
Homo sapiens [10] = test: Inhibition of Eotaxin-3 gene expression in IL-4/IL-13-stimulated fresh human skin explant using Franz diffusion cell model at 0.5 % administered topically preincubated overnight followed by fresh media replacement in receiver fluid without compound and subsequently stimulated with IL-4/IL-13 measured after 24 hrs by RT-qPCR analysis; type: functional, tissue-based; conditions: Skin of body
[11] = Stability of compound in fresh human skin explant using Franz diffusion cell model assessed as compound concentration in dermis at 0.5 % administered topically preincubated overnight followed by fresh media replacement in receiver fluid without compound and subsequently stimulated with IL-4/IL-13 measured after 40 hrs by LC-MS/MS analysis; type: ADME, tissue-based, Skin of body; conditions: topical or ocular, read-out: Ct
Homo sapiens [12] = test: Inhibition of MMP12 gene expression in IL-4/IL-13-stimulated fresh human skin explant using Franz diffusion cell model at 0.5 % administered topically preincubated overnight followed by fresh media replacement in receiver fluid without compound and subsequently stimulated with IL-4/IL-13 measured after 24 hrs by RT-qPCR analysis; type: functional, tissue-based; conditions: Skin of body
[13] = Thermodynamic solubility of the compound at pH 6.8 using crystalline form of sample; type: physicochemical; conditions: read-out: Therm_solubility
[14] = Drug penetration in fresh human skin explant using Franz diffusion cell model assessed as compound concentration in receiver fluid at 0.5 % administered topically preincubated overnight followed by fresh media replacement in receiver fluid without compound and subsequently stimulated with IL-4/IL-13 measured after 24 hrs by LC-MS/MS analysis; type: ADME, tissue-based, Skin of body
JAK3/JAK1 [15] = target: T2, JAK3/JAK1 (Homo sapiens, UniProt P23458+P52333); test: Inhibition of JAK1/3-mediated STAT5 phosphorylation in human M07E cells preincubated for 30 mins followed by IL-15 stimulation measured after 15 mins by flow cytometry; type: cell-based
T2 sequence (P23458 whole entry, one chain of several, the tested form may be a part): as the sequence (P23458 whole entry) above

[16] = target: T3, Tyrosine-protein kinase JAK3 (Homo sapiens, UniProt P52333); test: Inhibition of GST-fused JAK3 (811 to 1124 residues)(unknown origin) using Carboxyfluorescein-Ahx-GGEEEEYFELVKKKK peptide as substrate incubated for 30 mins in presence of ATP by caliper microfluidic mobility shift assay
T3 sequence (P52333 whole entry): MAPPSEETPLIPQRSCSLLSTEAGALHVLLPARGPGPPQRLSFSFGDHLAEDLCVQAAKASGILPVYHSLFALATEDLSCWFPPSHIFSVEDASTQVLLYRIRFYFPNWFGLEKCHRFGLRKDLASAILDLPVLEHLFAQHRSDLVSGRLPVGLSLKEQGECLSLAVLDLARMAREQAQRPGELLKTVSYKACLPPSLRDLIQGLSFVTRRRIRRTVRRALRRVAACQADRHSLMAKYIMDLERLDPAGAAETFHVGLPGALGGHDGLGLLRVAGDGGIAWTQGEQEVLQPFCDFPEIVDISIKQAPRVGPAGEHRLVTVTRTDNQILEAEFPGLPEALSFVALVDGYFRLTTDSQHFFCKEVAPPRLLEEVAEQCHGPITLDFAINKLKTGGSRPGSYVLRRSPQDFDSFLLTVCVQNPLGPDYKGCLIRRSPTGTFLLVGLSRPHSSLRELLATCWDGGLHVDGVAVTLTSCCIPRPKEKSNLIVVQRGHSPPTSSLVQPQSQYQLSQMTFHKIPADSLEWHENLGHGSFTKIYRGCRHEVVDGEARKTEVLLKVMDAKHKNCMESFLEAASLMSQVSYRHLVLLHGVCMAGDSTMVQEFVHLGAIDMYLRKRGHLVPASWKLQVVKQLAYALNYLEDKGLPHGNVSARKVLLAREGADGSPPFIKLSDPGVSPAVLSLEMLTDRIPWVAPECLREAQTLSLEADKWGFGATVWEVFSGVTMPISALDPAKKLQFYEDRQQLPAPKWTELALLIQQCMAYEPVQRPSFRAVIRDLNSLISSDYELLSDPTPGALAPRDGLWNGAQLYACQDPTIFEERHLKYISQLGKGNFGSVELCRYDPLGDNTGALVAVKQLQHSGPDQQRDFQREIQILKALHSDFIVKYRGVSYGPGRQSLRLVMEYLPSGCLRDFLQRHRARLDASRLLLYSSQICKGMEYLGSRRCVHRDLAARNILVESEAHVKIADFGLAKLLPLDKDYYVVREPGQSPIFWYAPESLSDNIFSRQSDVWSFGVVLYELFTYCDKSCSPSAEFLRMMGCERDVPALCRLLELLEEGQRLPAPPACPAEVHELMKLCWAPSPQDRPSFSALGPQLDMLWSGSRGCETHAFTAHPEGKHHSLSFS

[17] = target: T4, Mitogen-activated protein kinase kinase kinase 2 (Homo sapiens, UniProt Q9Y2U5); test: Inhibition of MAP3K2 (unknown origin)
T4 sequence (Q9Y2U5 whole entry): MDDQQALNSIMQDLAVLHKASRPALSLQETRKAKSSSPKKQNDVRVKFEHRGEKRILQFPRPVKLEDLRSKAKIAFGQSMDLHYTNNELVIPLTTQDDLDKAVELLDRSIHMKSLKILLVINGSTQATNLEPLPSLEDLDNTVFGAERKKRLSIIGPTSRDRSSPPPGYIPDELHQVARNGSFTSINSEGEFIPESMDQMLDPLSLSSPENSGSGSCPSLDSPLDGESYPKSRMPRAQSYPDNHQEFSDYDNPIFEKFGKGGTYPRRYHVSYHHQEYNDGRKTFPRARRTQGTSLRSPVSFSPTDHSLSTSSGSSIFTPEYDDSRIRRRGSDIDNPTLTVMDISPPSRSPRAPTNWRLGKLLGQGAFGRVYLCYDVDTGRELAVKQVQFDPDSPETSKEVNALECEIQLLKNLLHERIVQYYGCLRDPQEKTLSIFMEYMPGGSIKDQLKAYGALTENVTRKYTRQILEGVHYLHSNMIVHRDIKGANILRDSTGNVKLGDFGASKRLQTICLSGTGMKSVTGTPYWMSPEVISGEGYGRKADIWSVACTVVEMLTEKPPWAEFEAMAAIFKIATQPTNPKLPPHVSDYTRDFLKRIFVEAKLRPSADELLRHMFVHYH

[18] = target: Tyrosine-protein kinase JAK1 (Homo sapiens, UniProt P23458); test: Inhibition of GST-fused JAK1 (866 to 1154 residues)(unknown origin) using FITC-Ahr-KKSRGDYMTMQIG-NH2 peptide as substrate incubated for 30 mins in presence of ATP by caliper microfluidic mobility shift assay
Chain of Tyrosine-protein kinase JAK1 (P23458 whole entry, the tested form may be a part): as the sequence (P23458 whole entry) above

[19] = target: Non-receptor tyrosine-protein kinase TYK2 (Homo sapiens, UniProt P29597); test: Inhibition of GST-fused TYK2 (888 to 1187 residues)(unknown origin) using FITC-Ahr-KKSRGDYMTMQIG-NH2 peptide as substrate incubated for 30 mins in presence of ATP by caliper microfluidic mobility shift assay
Chain of Non-receptor tyrosine-protein kinase TYK2 (P29597 whole entry, the tested form may be a part): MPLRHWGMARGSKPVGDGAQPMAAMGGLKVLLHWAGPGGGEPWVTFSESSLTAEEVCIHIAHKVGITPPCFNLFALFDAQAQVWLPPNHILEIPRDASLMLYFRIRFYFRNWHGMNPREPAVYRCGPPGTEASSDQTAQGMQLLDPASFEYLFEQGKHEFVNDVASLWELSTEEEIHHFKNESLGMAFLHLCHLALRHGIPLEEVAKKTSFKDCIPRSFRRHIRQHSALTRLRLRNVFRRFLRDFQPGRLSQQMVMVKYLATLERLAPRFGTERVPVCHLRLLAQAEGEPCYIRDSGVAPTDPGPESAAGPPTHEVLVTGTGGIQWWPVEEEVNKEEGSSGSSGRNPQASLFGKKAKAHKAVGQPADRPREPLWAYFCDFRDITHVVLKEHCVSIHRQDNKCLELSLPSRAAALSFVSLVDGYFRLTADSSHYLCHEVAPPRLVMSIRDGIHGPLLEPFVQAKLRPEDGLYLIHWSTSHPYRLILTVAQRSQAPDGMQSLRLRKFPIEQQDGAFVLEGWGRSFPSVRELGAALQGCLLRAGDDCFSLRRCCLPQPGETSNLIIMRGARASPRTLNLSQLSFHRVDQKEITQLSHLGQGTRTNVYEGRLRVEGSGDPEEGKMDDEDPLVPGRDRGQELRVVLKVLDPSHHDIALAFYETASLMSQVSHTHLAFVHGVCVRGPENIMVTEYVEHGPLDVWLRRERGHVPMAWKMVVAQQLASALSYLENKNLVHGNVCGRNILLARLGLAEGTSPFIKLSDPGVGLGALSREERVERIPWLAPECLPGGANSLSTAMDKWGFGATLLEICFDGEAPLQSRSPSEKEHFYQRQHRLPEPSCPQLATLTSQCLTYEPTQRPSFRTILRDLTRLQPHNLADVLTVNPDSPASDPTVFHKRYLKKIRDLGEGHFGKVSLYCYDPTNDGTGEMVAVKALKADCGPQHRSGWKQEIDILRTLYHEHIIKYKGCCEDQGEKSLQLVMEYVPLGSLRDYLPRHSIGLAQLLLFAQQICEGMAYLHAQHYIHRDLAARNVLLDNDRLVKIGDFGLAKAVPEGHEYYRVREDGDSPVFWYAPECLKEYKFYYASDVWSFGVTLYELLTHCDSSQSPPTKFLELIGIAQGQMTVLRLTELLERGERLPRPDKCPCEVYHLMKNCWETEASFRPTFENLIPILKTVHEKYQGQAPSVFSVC

[20] = target: T5, Eukaryotic translation initiation factor 2-alpha kinase 3 (Homo sapiens, UniProt Q9NZJ5); test: Inhibition of EIF2AK3 (unknown origin)
T5 sequence (Q9NZJ5 whole entry): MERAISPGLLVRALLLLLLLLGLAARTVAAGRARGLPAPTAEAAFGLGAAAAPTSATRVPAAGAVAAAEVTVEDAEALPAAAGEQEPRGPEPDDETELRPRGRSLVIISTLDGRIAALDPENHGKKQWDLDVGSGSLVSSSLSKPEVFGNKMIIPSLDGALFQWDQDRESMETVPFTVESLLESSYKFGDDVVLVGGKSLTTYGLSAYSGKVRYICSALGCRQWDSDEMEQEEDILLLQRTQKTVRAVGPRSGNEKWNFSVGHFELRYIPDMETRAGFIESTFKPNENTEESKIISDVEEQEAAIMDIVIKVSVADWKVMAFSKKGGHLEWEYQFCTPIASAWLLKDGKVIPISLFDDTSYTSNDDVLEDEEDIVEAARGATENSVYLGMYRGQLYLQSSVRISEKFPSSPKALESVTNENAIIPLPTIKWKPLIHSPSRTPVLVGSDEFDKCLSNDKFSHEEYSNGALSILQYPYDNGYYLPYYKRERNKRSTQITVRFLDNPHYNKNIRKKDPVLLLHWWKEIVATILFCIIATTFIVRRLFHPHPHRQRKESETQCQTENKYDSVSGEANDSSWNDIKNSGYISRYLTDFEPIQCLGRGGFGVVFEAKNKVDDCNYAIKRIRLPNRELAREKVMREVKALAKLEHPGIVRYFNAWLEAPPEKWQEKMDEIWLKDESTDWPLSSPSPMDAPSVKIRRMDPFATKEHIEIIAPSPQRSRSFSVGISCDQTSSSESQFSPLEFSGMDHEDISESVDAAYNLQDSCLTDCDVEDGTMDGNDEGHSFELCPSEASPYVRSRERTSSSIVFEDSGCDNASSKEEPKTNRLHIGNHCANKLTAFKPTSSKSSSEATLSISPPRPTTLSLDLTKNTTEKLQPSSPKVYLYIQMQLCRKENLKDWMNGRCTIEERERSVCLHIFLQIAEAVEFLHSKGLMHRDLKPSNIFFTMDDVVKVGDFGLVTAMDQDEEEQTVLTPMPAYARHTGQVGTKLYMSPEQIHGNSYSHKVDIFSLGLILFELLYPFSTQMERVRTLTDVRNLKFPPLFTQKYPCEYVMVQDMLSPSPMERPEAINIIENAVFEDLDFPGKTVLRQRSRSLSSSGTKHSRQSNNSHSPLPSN

JAK3/JAK1 [21] = target: T2, JAK3/JAK1; test: Inhibition of JAK1/3-mediated STAT5 phosphorylation in human whole blood incubated for 30 mins followed by IL-2 addition measured after 15 mins by flow cytometry; type: tissue-based
[22] = Stability of compound under light stress assessed as compound decomposition under sunlight with intensity of 4000 KJ/m2, irradiation of 250 W/m2, wavelength of >290 nm, temperature of 37 degreeC for 4 hrs using amorphous form of sample; type: ADME; conditions: read-out: Drug degradation
[23] = Saturation solubility of compound in PEG400/transcutol/benzyl alcohol/water mixture using amorphous form of sample; type: physicochemical
[24] = Stability of compound under temperature stress assessed as compound degradation at 50 degreeC measured after 7 days using amorphous form of sample; type: physicochemical; conditions: time 7 day; read-out: Drug degradation
[25] = Solubility of the compound at pH 6.8 using amorphous form of sample; type: physicochemical; conditions: buffer

SMILES	half-life [1] [min]	IC50 (JAK2/JAK1) [µM]	IC50 [3] [µM]	half-life at 1 µM [4] [min]	Papp [7] [×10⁻⁶ cm/s]	logD [9]	IC50 (JAK3/JAK1 [15]) [µM]	IC50 [16] [µM]	IC50 [18] [µM]	IC50 (JAK3/JAK1 [21]) [µM]	other results
CCOC(=O)Oc1cccc(Nc2cc(Nc3ccccc3Cl)c(C(N)=O)cn2)n1	7	0.071	5.22	4							half-life [2]: ~4 min
Cc1cccc(Nc2cc(Nc3ccccc3Cl)c(C(N)=O)cn2)n1	> 240	0.085		> 240	6.7	4.4					inhibition (Homo sapiens [5]): Active; inhibition at 10 µM (C-C motif chemokine 17): 100%; Activity (Homo sapiens [6]): Active; solubility thermodynamic [8]: 2800 µg/mL (≈ 7.91 mM); inhibition (Homo sapiens [10]): Active; concentration at 40 h, 0.5 % [11]: 33 µM; inhibition (Homo sapiens [12]): Active; solubility thermodynamic [13]: 0.1 µg/mL (≈ 0.000283 mM); Drug uptake [14]: 0.004 µM
COc1ccccc1Nc1cc(Nc2ccc(CC(=O)O)cn2)ncc1C(N)=O	< 240	> 10	0.011	> 240	0.5	0.25	7.02	0.01	0.005	> 40	IC50 [17]: < 0.1 µM; IC50 [19]: 0.007 µM; IC50 [20]: < 0.1 µM
COC(=O)Cc1ccc(Nc2cc(Nc3ccccc3Cl)c(C(N)=O)cn2)nc1	12	0.037	0.01	5		3.8	0.027	0.013	0.009	7.85	degraded at 4 h [22]: 7%; solubility thermodynamic [23]: 5400 µg/mL (≈ 13.1 mM); degraded at 168 h [24]: 11%; solubility [25]: 3 µg/mL (≈ 0.00728 mM)
